# According to patent publication US20170296568A1, “SIRTUIN GENE POTENTIATOR, AND PHARMACEUTICAL PRODUCT, COSMETIC PRODUCT, AND FOOD PRODUCT USING SAME” (MORISHITA JINTAN CO., LTD., priority 2012, published 2017):
# Tests used:
# Type in all cases: cell-based, human
# [1] = system: sirtuin gene hSIRT1; experiment: Expression level of endogenous sirtuin gene hSIRT1 in Caco-2 cells (quantitative PCR, relative to β-actin); details: 10 μM, 2 days, qPCR normalised to β-actin, FIG. 2
# Procedure: Caco-2 cells were plated at 3.0×10^5 cells for a 5-mL dish. After 24 hours, each polyphenol was added to be 10 μM. Note that as a negative control, none of polyphenol nor terpenoid was added, and as a positive control, 10 μM resveratrol was added. At 2 days after this treatment, RNA was collected.
# The total RNA was prepared using High Pure RNA Isolation Kit (manufactured by Roche, Indianapolis, Ind., USA). For the procedures from the total RNA preparation to the reverse transcription, the reagents and tools used were RNase-free. Cells were prepared in a sub-confluent to confluent condition in a cell culture dish (Greiner bio-one, Monroe, N.C., USA). The medium was completely removed, 200 μL of PBS, and 400 μL of cell lysis solution, which was contained in High Pure RNA Isolation Kit, were added, and the entire dish was well covered by the cell lysis solution. When the viscosity of the cell lysis solution was decreased, the cell lysis solution was collected into a 1.5-mL sample tube. The collected sample was well suspended. A filter tube and a collection tube, which were contained in High Pure RNA Isolation Kit, were assembled, and the sample was pipetted into a buffer reservoir in the upper portion of the filter tube, and was centrifuged at 8,000×g for 15 seconds. The flowthrough liquid into the collection tube was discarded, and the filter tube and the collection tube were again assembled. Then, 90 μL of DNase incubation buffer per sample was pipetted into a sterile reaction tube, and 10 μL of DNase I was added into the tube and mixed. The mixture liquid was pipetted into the buffer reservoir in the upper portion of the filter tube, was added on the glass fiber fleece in the filter tube, and was incubated at room temperature for 15 minutes. Then, 500 μL of wash buffer I, which was contained in High Pure RNA Isolation Kit, was added to the buffer reservoir in the upper portion of the filter tube, and was centrifuged at 8,000×g for 15 seconds. The flowthrough liquid into the collection tube was discarded, and the filter tube and the collection tube were again assembled. Then, 500 μL of wash buffer II was added to the buffer reservoir in the upper portion of the filter tube, and centrifugation was performed at 8,000×g for 15 seconds. The liquid discharged to the collection tube was discarded, and the filter tube and the collection tube were again assembled. Then, 200 μL of wash buffer II was added to the buffer reservoir in the upper portion of the filter tube, and centrifugation was performed at 13,000×g for 2 minutes, after which a remaining wash buffer in the filter tube was removed. The collection tube was discarded, the filter tube was inserted into a sterile reaction tube, and 50 μL of elution buffer was added in the filter tube, and centrifugation was performed at 8,000×g for 1 minute. The eluate obtained by the procedures was taken as an RNA solution. The concentration of RNA in the solution was calculated based on the light absorbance at 260 nm with a NanoDrop 2000/2000c spectrophotometer (Thermo Scientific, Waltham, Mass., USA), for use in subsequent experiments.
# Then, 5 pmol of oligo(dT)20 primer was added to 1.0 μg of total RNA extracted from the cells, and sterile water was further added thereto so that the total liquid amount was 13 μL. Heat treatment was performed using a thermal cycler (Peltier Thermal Cycler PTC-200, MJ Research, Watertown, Mass., USA) at 65° C. for 5 minutes, and the resultant was immediately transferred in ice to quench it. During this treatment, the reverse transcriptase reaction program was advanced to the 42° C. stage and was temporarily stopped. A mixture solution obtained by mixing 4 μL of reverse transcriptase reaction buffer solution, 2 μL of 1 mM dNTPs (Amershan Pharmacia Biotech., Buckinghamshire, UK), and 0.5 μL of reverse transcriptase ReverTra Ace (TOYOBO, Osaka, Japan) per sample was added to and gently mixed with the sample on ice after 5 minutes. […]
# [2] = system: hSIRT1 promoter; experiment: Screening for SIRT1 enhancing polyphenol or terpenoid: hSIRT1 promoter activity (EGFP fluorescence) in Caco-2-hSIRT1p-EGFP cells; details: 10 μM, 2 days after addition, relative ratio to control (PBS), FIG. 1
# From the text: First, the promoter region (−1593 to −1 bp) of hSIRT1 (human SIRT1) was acquired using the LA-PCR method using, as a template, a human genome DNA extracted from TIG-1 cells (obtained from Institute of Development, Aging and Cancer, Tohoku University), with primers synthesized based on reported information of the hSIRT1 genomic sequence so as to synthesize primers having added AseI and NheI recognition sequences at their respective ends (hSIRT1p-AseI (SEQ ID NO: 1) and hSIRT1p-NheI (SEQ ID NO: 2)). The PCR reaction condition was at 94° C. for 1 minute, followed by at 98° C. for 20 seconds; and at 68° C. for 2 minutes, 34 cycles; and then at 72° C. for 10 minutes for extension reaction. LA-Taq from Takara Shuzo Co., Ltd. was used as the TaqDNApolymerase. The primers were synthesized by Nippon EGT based on our request.
# The hSIRT1 promoter fragment obtained by the LA-PCR was subjected to TA cloning using a pGEM-T Easy vector (manufactured by Promega KK). Furthermore, the base sequence thereof was confirmed by sequencing. The hSIRT1 promoter fragment, inserted into the pGEM-T Easy vector, was cut out by digestion with the restriction enzymes AseI and NheI, and the CMV promoter of a pEGFP-C3 (manufactured by Takara Bio Inc.) was removed by digestion with AseI and NheI in a similar manner, and the hSIRT1 promoter fragment was inserted into that removed site, so that phSIRT1p-EGFP was obtained.
# Transfection was performed using a LIPOFECT AMINE 2000 REAGENT (manufactured by Life Technologies) according to its protocol. On the day before the transfection, Caco-2 cells (human colonic cancer-derived cells obtained from Riken BioResource Center) were plated at 1.0×10^6 in a 10-mL dish. On the day of the transfection, phSIRT1p-EGFP (10 μg) was diluted in a serum-free OPTI-MEM medium to a volume of 750 μL, after which 15 μL of LIPOFECT AMINE Reagent was diluted in a serum-free OPTI-MEM medium to […], and they were incubated at room temperature for 5 minutes. The transfection using the LIPOFECT AMINE Reagent was performed in the absence of serum, during which the culture medium of the Caco-2 cells plated on the previous day was removed, and was replaced by 5 mL of serum-free OPTI-MEM medium. After 30 minutes of this, 1.5 mL of DNA-LIPOFECT AMINE 2000 mixture was added to each 10-mL dish. After the addition, the dish was gently shaken to mix the DNA-LIPOFECT AMINE and the OPTI-MEM. After the culture for 3 hours, the DNA-LIPOFECT AMINE mixture solution was removed, and the medium was replaced by a serum-containing culture medium. Subsequently, culture was performed under the environment at 5% CO2/95% air and 37° C. for 21 hours, and the culture medium was replaced by a new one.
# Since phSIRT1p-EGFP is resistant to the drug G418, the drug G418 was added to the transfected cells to 70 μg/mL to subject them to the drug selection for a week. The culture medium was replaced by a new one every three days, and G418 was added every time at the same concentration. Accordingly, Caco-2-hSIRT1p-EGFP cells were obtained.
# Caco-2-hSIRT1p-EGFP cells were plated at 0.6×10^4 cells/well in a 96-well plate. On the next day, 10 μM polyphenol or terpenoid, or control (PBS) was added to each well. At 2 days after the addition, the culture solution was aspirated, after which 100 μL of 4% paraformaldehyde was added to each well, and the plate was allowed to stand at room temperature for 10 minutes. After the plate was allowed to stand for 10 minutes, 4% paraformaldehyde was aspirated, 100 μL of Cellstain (registered trademark)-Hoechst 33342 solution (Dojindo) diluted 1/500 with PBS was added to each well, and the plate was allowed to stand at room temperature in the dark for 15 minutes and the solution was then aspirated. Then, 100 μL of PBS was added to each well, and the fluorescence intensity was measured using an IN Cell Analyzer 1000 (GE Healthcare, Amersham Place, UK). The promoter activity was represented by a relative ratio to the activity of the control.
# [3] = system: hSIRT1 promoter; experiment: Enhancing the hSIRT1 promoter: EGFP fluorescence intensity in HaCaT-hSIRT1p-EGFP cells by flow cytometry; details: 10 μM in DMSO, 24 hours after addition, FIG. 4
# Procedure: HaCaT cells (human epidermis keratinocyte-derived cell lines, provided by Dr. Takumi Miura, National Center for Child Health and Development) were cultured using a Dalbecco's Modified Eagle Medium (DMEM) medium (Nissui Pharmaceutical Co., Ltd, Tokyo) supplemented with 10% FBS, 100,000 U/L penicillin (Meiji, Tokyo), 100 mg/L streptomycin (Meiji), and 2.0 g/L NaHCO3. These cells were subcultured at 37° C. in the presence of 5% CO2.
# HaCaT cell lines (HaCaT-hSIRT1p-EGFP cells) into which the vector (phSIRT1-EGFP) described in Reference Example 1 was integrated were prepared as below.
# The HaCaT cells were disseminated at 9.0×10^5 in a φ60-mm dish, and were cultured in 10% FBS supplemented DMEM medium. Cells as a control were prepared in a similar manner. After 24 hours, 8 μg of phSIRT1p-EGFP was added to and mixed with 300 μL of DMEM medium, 24 μL of Hilymax (manufactured by Dojindo Laboratories), which is a transfection reagent, was further added and mixed therewith, and the mixture was incubated for 15 minutes at room temperature. Subsequently, the total amount was added to the HaCaT cells. After 3 hours, the medium was replaced by 10% FBS supplemented DMEM medium.
# At 24 hours after the gene introduction, the medium was replaced by 10% FBS supplemented DMEM medium containing 750 μg/mL of G418 (Wako Pure Chemical Industries, Ltd.). After visually confirming under a microscope that all the control non-treated HaCaT cells were killed, the subculture was continued using 10% FBS supplemented DMEM containing 150 μg/mL of G418.
# It was confirmed with flow cytometry that the phSIRT1p-EGFP vector was reliably transferred inro the cells after the subculture. The above-described cells and the control non-treated HaCaT cells were plated at 7.0×10^5 per a φ60-mm dish, respectively. After 24 hours, the cells were picked up and well suspended in 2 mL of 5% FBS supplemented DMEM medium, and were filtered through a Nylon Mesh (Kyoshin Rikoh Inc., Japan), and the EGFP fluorescence intensity thereof was measured with a Flow Cytometer (EPICS, BeckmanCoulter). The analysis was performed using software FlowJo (Tree Star, Ashland Oreg.), so that the EGFP fluorescence intensity of each cell was represented as a histogram.
# HaCaT-hSIRT1p-EGFP cells were plated at 1.7×10^6 cells in a φ60-mm dish (as measured by flow cytometry) or at 2.0×10^4 cells/well in a 96-well plate (as measured by an IN Cell Analyzer 1000). After 24 hours, 10 μM of each polyphenol or terpenoid dissolved in DMSO (Wako Pure Chemical Industries, Ltd.) was added thereto. Note that as a negative control, the same amount of DMSO was added without polyphenol or terpenoid, and as a positive control, 10 μM resveratrol was added. At 24 hours after the addition of the various polyphenols or terpenoids or the controls, the fluorescence intensity was measured by flow cytometry.
SMILES,relative gene expression level of hSIRT1 [1],relative hSIRT1 promoter activity [2],EGFP fluorescence intensity (hSIRT1 promoter activity) [3]
C[C@@]12CCc3occc3[C@H]1CC[C@@]13C[C@@H](CC[C@H]12)[C@@](O)(CO)C3 [cafestol],hSIRT1 transcription enhancing effect was observed,particularly strong hSIRT1 promoter enhancing activity,
O=C(O[C@H]1[C@@H]2OC(=O)c3cc(O)c(O)c(O)c3-c3c(cc(O)c(O)c3O)C(=O)OC[C@H]2OC(O)[C@@H]1OC(=O)c1cc(O)c(O)c(O)c1)c1cc(O)c(O)c(O)c1 (stereo partly shown) [tellimagrandin I],,particularly strong hSIRT1 promoter enhancing activity,hSIRT1 expression effect on skin epidermis cells was seen
CC1(C)[C@@H](O[C@H]2O[C@H](C(=O)O)[C@@H](O)[C@H](O)[C@H]2O[C@@H]2O[C@H](C(=O)O)[C@@H](O)[C@H](O)[C@H]2O)CC[C@]2(C)[C@H]3C(=O)C=C4[C@@H]5C[C@@](C)(C(=O)O)CC[C@]5(C)CC[C@@]4(C)[C@]3(C)CC[C@@H]12 [glycyrrhizin],hSIRT1 transcription enhancing effect was observed,,
O=C(O[C@@H]1O[C@@H]2COC(=O)c3cc(O)c(O)c(O)c3-c3c(cc(O)c(O)c3O)C(=O)O[C@H]2[C@H](OC(=O)c2cc(O)c(O)c(O)c2)[C@H]1OC(=O)c1cc(O)c(O)c(O)c1)c1cc(O)c(O)c(O)c1 [eugeniin],hSIRT1 transcription enhancing effect was observed,particularly strong hSIRT1 promoter enhancing activity,
